Consider three molecules from US11458212B2, “Molecular imaging of cancer cells in vivo” (H. Lee Moffitt Cancer Center and Research Institute, Inc., priority 2011, dated 2022).

The target of series [1] is T1, TLR2 (Homo sapiens, UniProt O60603). Briefly: In vitro TLR2 functional bioassay (NF-κB luciferase, HEK293/hTLR2 cells). It counts as cell-based. Further details: host or cells: HEK293 stably transfected with pUNO-hTLR2, transiently transfected with the pNifty-Luc reporter. From the text: In Vitro TLR2 Functional Bioassay The in vitro TLR2 functional bioassay was developed and optimized for use in screening soluble compound libraries to identify both TLR2 agonists and antagonists. In this study, the TLR2 functional bioassay was used as a fast high throughput screening to identify TLR2 agonist ligands by measuring the inducing activity of NF-κB. HEK293/hTLR2 cells, highly overexpressing human TLR2, were used along with the parental HEK293, cells as a negative control. Cells were seeded at a density of 40,000 per well using a WellMate® Microplate dispenser (Thermo Fischer Scientific/Matrix) in black 96-well plates with opaque white wells (Perkin Elmer Wallac, Waltham, Mass.) and then incubated at 37° C. On day 2, the cells were transiently transfected with pNifty-Luc (InvivoGen), an NF-κB inducible reporter plasmid expressing the luciferase reporter gene (Zuany-Amorim, C., J., et al. Nat Rev Drug Discov, 2002. 1(10):797-807), using an optimized 4:1 ratio by volume of Fugene® HD Transfection Reagent (Roche Applied Science, Indianapolis, Ind.) to pNifty-Luc plasmid DNA (1 μg/mL). […] On day 4 after 24 hrs of peptide stimulation, luciferase induced activity by the induction of NF-κB was measured. Media was aspirated from the wells using an ELx405 Select plate washer (BioTek, Winooski, Vt.), 150 μg/mL D-luciferin (Gold Biotechnology, St. Louis, Mo.) was dispensed using the microplate dispensor; the plates were incubated at 37° C. for 5 min. The luminescence intensity was measured using the standard luminescence protocol on a Victor™ X4 plate-reader equipped with a plate stacker for readout of multiple plates at a time (PerkinElmer, Waltham, Mass.). For each in vitro TLR2 bioassay, at least three different experiments were performed in triplicate (n=3+). Data were analyzed with GraphPad Prism software and curves were generated with the appropriate nonlinear fit regression analysis.
The in vitro TLR2 functional bioassay was developed and optimized for use in high-throughput screening of soluble compound libraries to identify both TLR2 agonists and antagonists. The bioassay measures the induction of NF-κB signaling via TLR2 in HEK-293/hTLR2 cells and parental HEK-293 cells as a negative control. Cells were seeded at a density of 40,000 per well using a WellMate Microplate dispenser (Thermo Fisher Scientific/Matrix) in black 96-well plates with opaque white wells (PerkinElmer, Waltham, Mass.) and then incubated at 37° C. On day 2, the cells were transiently transfected with pNifty-Luc (InvivoGen, San Diego, Calif.), an NF-κB inducible reporter plasmid expressing the luciferase reporter gene[28] using an optimized 4:1 ratio by volume of FugeneHD Transfection Reagent (Promega, Madison, Wis.) to pNifty-Luc plasmid DNA (1 μg/mL). […] […] On day 4 after 24 h of peptide stimulation, luciferase induced activity by the induction of NF-κB was measured. Media was aspirated from the wells using an ELx405 Select CW plate washer (BioTek, Winooski, Vt.), 150 μg/mL D-luciferin (Gold Biotechnology, St. Louis, Mo.) was dispensed using the microplate dispensor; the plates were incubated at 37° C. for 5 min. The luminescence intensity was measured using the standard luminescence protocol on a Victor X4 Multilabel plate reader equipped with a plate stacker for readout of multiple plates at a time (PerkinElmer, Waltham, Mass.). […] Data were analyzed with GraphPad Prism software and curves were generated with the appropriate nonlinear fit regression analysis.
Target sequence in this assay (O60603 21-784): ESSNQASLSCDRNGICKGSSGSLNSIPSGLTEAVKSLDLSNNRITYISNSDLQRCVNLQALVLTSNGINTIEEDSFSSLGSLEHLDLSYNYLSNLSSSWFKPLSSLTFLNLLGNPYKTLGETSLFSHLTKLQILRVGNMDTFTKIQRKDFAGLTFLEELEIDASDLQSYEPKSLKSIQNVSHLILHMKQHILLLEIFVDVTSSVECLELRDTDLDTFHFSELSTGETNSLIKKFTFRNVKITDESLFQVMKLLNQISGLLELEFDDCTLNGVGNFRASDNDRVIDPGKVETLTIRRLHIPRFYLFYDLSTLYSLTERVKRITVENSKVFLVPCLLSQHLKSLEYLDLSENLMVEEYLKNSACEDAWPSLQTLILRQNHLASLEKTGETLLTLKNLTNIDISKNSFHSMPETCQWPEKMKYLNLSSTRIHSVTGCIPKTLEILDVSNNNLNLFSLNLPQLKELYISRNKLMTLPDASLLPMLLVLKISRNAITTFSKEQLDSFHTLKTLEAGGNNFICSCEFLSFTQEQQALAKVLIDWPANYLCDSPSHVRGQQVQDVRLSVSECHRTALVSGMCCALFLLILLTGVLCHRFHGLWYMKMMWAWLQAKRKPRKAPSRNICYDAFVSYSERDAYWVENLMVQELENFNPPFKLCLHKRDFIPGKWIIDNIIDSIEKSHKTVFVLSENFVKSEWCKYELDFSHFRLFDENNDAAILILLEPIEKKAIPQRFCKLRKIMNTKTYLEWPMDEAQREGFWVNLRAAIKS
Target sequence in this assay (Q9Y2C9 32-796 partner): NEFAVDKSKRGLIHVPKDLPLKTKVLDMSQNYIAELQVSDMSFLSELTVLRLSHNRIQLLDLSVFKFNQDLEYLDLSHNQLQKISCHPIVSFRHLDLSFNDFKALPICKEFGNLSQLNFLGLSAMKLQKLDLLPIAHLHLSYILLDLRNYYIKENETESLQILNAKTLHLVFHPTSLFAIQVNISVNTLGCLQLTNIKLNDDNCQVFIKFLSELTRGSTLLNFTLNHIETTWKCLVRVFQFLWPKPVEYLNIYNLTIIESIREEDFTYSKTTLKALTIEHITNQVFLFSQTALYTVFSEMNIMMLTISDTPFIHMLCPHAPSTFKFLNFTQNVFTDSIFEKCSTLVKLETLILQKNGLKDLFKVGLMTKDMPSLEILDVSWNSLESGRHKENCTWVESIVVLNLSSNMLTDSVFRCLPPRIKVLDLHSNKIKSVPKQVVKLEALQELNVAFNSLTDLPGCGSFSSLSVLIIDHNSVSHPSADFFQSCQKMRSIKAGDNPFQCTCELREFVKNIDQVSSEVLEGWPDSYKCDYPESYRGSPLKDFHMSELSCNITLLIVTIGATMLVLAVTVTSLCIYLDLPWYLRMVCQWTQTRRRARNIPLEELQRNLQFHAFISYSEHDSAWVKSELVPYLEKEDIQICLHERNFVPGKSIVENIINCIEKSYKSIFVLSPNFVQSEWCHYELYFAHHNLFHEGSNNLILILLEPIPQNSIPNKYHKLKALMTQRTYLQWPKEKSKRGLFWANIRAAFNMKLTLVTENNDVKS

In series [2] the target is T1, TLR2. The series is described as follows: In cyto europium TRF saturation binding assay. Further details: ATCC (SU.86.86 CRL-1837, Capan-I HTB-79); SU.86.86 and Capan-I express TLR2 endogenously. As for the experimental part:
TRF binding assays were performed as previously described (see Xu, L., et al. Mol Cancer Ther. 2009 8(8):2356-65).
Europium TRF binding assays were performed as previously described with slight modifications using 3 cell lines that express TLR2: HEK-293/hTLR2, SU.86.86, and Capan-I.[23a, 23d, 29] The Capan-I and SU.86.86 cells were plated in 96-well black plates with white opaque wells (PerkinElmer); while the HEK-293/hTLR2 cells were plated on 96-well poly-D-lysine coated plates (Sigma-Aldrich) to aid in the attachment of these cells to the plate. Cells were grown in the 96-well plates for 2 days reaching approximately 80% confluency. Both types of plates were evaluated for nonspecific binding and background signal.
For saturation binding, increased concentrations of the labeled ligand, compound 11 (Table 8), were used to determine total binding to TLR2. Non-specific binding was determined in the presence of 1 μM Pam2CSK4. On the day of the experiment the medium was aspirated. 50 μL of binding buffer was added to the total binding wells and 50 μL of Pam2CSK4 was added to the non-specific wells and then allowed to incubate for 30 m at 37° C. Next, 50 μL of the serial dilutions of […] were added and then allowed to incubate for 1 h at 37° C. Cells were washed three times to remove unbound ligand. Next, 100 μL of DELFIA Enhancement Solution (PerkinElmer) was added to each well. Cells were incubated for 30 min at 37° C. prior to reading. The plates were read on the VICTOR X4 Multilabel plate reader using the standard europium TRF protocol (340 nm excitation, […] and […] collection at 615 nm). To determine the mean Kd, statistical analysis was performed using GraphPad Prism software.
Target sequence in this assay (O60603 21-784): as the sequence (O60603 21-784) above
Target sequence in this assay (Q9Y2C9 32-796 partner): as the sequence (Q9Y2C9 32-796 partner) above

Series [3] relates to TLR2 expressing tumor xenografts (SU.86.86 cells). Briefly: In vivo TLR2 selectivity / tumor retention fluorescence imaging. The conditions noted are these: for retention of fluorescence signal in tumor: 24 h post injection. Further details: species or system nude mice. As for the experimental part: Female athymic nude mice 6-8 weeks old (Harlan) bearing human pancreatic tumor xenografts consisting of SU.86.86 cells on the right flank were used for this study. Mouse weights and tumor volumes were determined using caliper measurements and the formula: volume (mm3)=(length×width^2)/2. Images were acquired when the tumors reached an average size of 500 mm^3. For the blocked group, a co-injection of 100 nmol/kg of the fluorescently labeled compound 13 plus 2 μmol/kg Pam2CSK4 (a 20-fold excess) was administered via tail vein injection; for the unblocked group, 100 nmol/kg 13 was administered. Fluorescence images were acquired at time 0 and 24 h using the Caliper Xenogen IVIS200 system (PerkinElmer) with the 710-760 nm excitation and 810-875 nm emission filter set. The fluorescence was quantified using Living Image software, in which the quantified signals were corrected for both instrument and mouse background subtractions. The quantified fluorescence was then plotted using GraphPad Prism software and underwent statistical analysis using Student's t-test.
For further confirmation of ligand 13 specificity for TLR2, ex vivo fluorescence imaging and histological analyses were performed on the tumors. For histological analyses the samples were fixed in 10% formalin solution, processed, embedded, sectioned and either H&E stained for the presence of tumor or underwent IHC staining using TLR2 antibody (Abcam #ab24192).

Series [4] has the same test system. The description is as above. More on the design: species or system nude mice.
The target of series [5] is T1, TLR2. Briefly: In cyto europium TRF competition binding assay. More on the design: ATCC (SU.86.86 CRL-1837, Capan-I HTB-79); SU.86.86 and Capan-I express TLR2 endogenously.
Target sequence in this assay (O60603 21-784): as the sequence (O60603 21-784) above
Target sequence in this assay (Q9Y2C9 32-796 partner): as the sequence (Q9Y2C9 32-796 partner) above
Procedure: Competition binding assays were performed to test the TLR2 binding specificity of the test ligands using 2 cell lines: HEK-293/hTLR2 and SU.86.86. Cells were grown in 96-well plates for 2 days reaching approximately 80% confluency. On the day of the experiment, the cell culture media was aspirated and 50 μL of non-labeled test ligand was added in a series of decreasing concentrations (1 μM to 0.01 nM) followed by 50 μL of the competing Eu-labeled ligand 10 at a fixed concentration of 90 nM. Cells were incubated with labeled and unlabeled ligands for 1 h at 37° C. […] Cells were incubated for 30 min at 37° C. prior to reading. The plates were read on PerkinElmer VICTOR X4 Multilabel reader using the standard europium TRF protocol. […]
Series [6] concerns orthotopic pancreatic tumors. The series is described as follows: FL guided intraoperative surgical removal of orthotopic pancreatic tumors. The series is classed as in vivo, mice. Particulars: 24 h post-injection, data not shown. The text has this: Improved survival rates for pancreatic cancer are associated with the complete surgical resection of tumor resulting in a tumor-free margin (R0). New methods employing intraoperative fluorescence (FL) guided tumor detection could lead to increased R0 margins and improved survival. We have reported Toll-like receptor 2 (TLR2) as a bona fide cell-surface marker for pancreatic adenocarcinoma. We then developed a high-affinity TLR2 binding ligand conjugated to a near-infrared (NIR) fluorescent dye, IR800CW, as a targeted molecular imaging probe for the intraoperative detection of surgical margins. To evaluate the in vivo pharmacokinetics and biodistribution of compound 13, FL imaging was performed on multiple optical imaging systems (PerkinElmer IVIS 200 and FMT2500XL, and ART Optix MX3) using TLR2 expressing pancreatic tumor xenograft mouse models (subcutaneous and orthotopic). […] Prior to surgery, the orthotopic pancreatic tumor volumes were monitored weekly and measured in vivo by 3D ultrasound imaging. […]

Series [7] concerns the target T1, TLR2. Particulars: 95° C. for 30 min; cited from earlier work.
Target sequence in this assay (O60603 21-784, species assumed): as the sequence (O60603 21-784) above

Entries after “also recorded” stand apart in the source; their conditions may differ.

For `CCCCCCCCCCCCCCCC(=O)OC[C@H](CSC[C@H](NC(=O)COCC(=O)NCCCOCCOCCOCCCNC(=O)CN(CCN(CCN(CC(=O)O)CC(=O)O)CC(=O)O)CC(=O)O)C(=O)NCC(=O)N[C@H](CO)C(=O)NCCCOCCOCCOCCCNC(=O)COCC(N)=O)OC(=O)CCCCCCCCCCCCCCC` [Compound 11], at TLR2 [1], the “decrease in potency compared to 10” value worked out at 10 fold. Moreover, the Bmax at TLR2 [2] (Capan-I cells) is recorded as 951,170 AFU; on TLR2 [2] (HEK-293/hTLR2 cells), 114,271 AFU; on TLR2 [2] (SU.86.86 cells), 269,878 AFU. For the same molecule, binding on TLR2 [2] (cell line not stated) was characterised by a dissociation constant (Kd) of 30 nM.

For the molecule `CCCCCCCCCCCCCCCC(=O)OC[C@H](CSC[C@H](NC(=O)COCC(=O)NCCCOCCOCCOCCCNC(=O)CCSC1CC(=O)N(CCNC(=O)CCCCC[N+]2=C(/C=C/C3=C(Oc4ccc(S(=O)(=O)[O-])cc4)C(=C/C=C4/N(CCCCS(=O)(=O)O)c5ccc(S(=O)(=O)O)cc5C4(C)C)/CCC3)C(C)(C)c3cc(S(=O)(=O)O)ccc32)C1=O)C(=O)NCC(=O)N[C@H](CO)C(=O)NCCCOCCOCCOCCCNC(=O)COCC(N)=O)OC(=O)CCCCCCCCCCCCCCC` (stereo partly drawn) [Compound 13, IRDye800CW-Mpr-PEGO-Cys(S-[2,3-bis(palmitoyl)oxy-(R)-propyl])-Gly-DSer-PEGO-NH2], the “mean tumor fluorescence unblocked / blocked” value in series [3] (24 h, 100 nmol/kg 13 ± 2 μmol/kg Pam2CSK4 (20-fold excess), n=8) is given as 1.94 fold. In addition, the “effect of blocking with excess unlabeled ligand on tumor signal” value in series [3] (24 h, p<0.001) is “significantly decreased FL signal in the tumor; also recorded: significant reduction in the tumor fluorescence”. For the same molecule, the “retention of fluorescence signal in tumor” value in series [3] was “Fluorescence signal was present in TLR2 expressing pancreatic tumor xenografts; also recorded: retention of fluorescence signal in the tumor”; in series [3] (listed as LiCor IRDye800CW/T-02 conjugate), “retained in the tumor at 24 h post injection while the agent had cleared from the animal except for the kidneys”. In series [4] (10 nmol/Kg dosage), the “duration of retention in the SU.86.86 tumor” value is listed as “over 96 h”. The “clearance from the kidney” value in series [4] (mouse, in vivo) is “cleared from the kidney within days of the injection but was retained longer in the tumor”. Also, in series [4] (orthotopic), the “uptake in orthotopic pancreatic tumor xenografts” value is “taken into and retained in orthotopic pancreatic tumor xenografts”. For the same molecule, the “duration of FL signal retention in TLR2 expressing tumor xenografts” value in series [4] (post-injection, dose not stated) is reported as “up to 96 h”. For the same molecule, on TLR2 [1] (dose-response 0.001 ng/mL to 10 μg/mL, read-out: TLR2 Agonist Activity EC50), the EC50 (usually the concentration at which the effect is half-maximal) came to 34 nM. The Ki (usually the dissociation constant of the complex between target and ligand, obtained from inhibition or displacement) worked out at 67 nM at TLR2 [5] (SU.86.86 cells, 90 nM compound 11) and 11 nM on TLR2 [5] (competitive binding assay, cell line not stated). In addition, in series [6], the “intraoperative fluorescence detection of tumor” value is “intraoperative detection of pancreatic cancer were demonstrated”.

B1: SAA: recombinant human Apo-SAA1 (Peprotech) derived from E. coli; serum amyloid A, acute-phase protein, TLR2 agonist (protein)
chain: MRSFFSFLGEAFDGARDMWRAYSDMREANYIGSDKYFHARGNYDAAKRGPGGVWAAEAISDRENIQRFFGHGAEDSLADQAANEWGRSGKDPNHFRPAGLPEKY
On to B1, for which the “loss of activity of heat-treated SAA” value with TLR2 [7] is given as 95%. The “NF-κB induced luciferase activity (luminescence) in screening” value in the series with TLR2 [1] (1 μg/mL, SAA at 1 and 10 μg/mL) was “low potency”.
